Results: ChEMBL document CHEMBL2169778, “Small molecule inhibitors of signal transducer and activator of transcription 3 (Stat3) protein” (J Med Chem, 2012)
Blank lines part the entries; values can stand above or below the compound they belong to. Where a SMILES comes first, the peptide text is derived from it. [ ]: non-standard residue; d: D form. The star is where a group is joined. Pro(3S,4R-methano) = O=C(O)[C@H]1NC[C@@H]2C[C@@H]21; pY = N[C@@H](Cc1ccc(OP(=O)(O)O)cc1)C(=O)O; Hydrocinnamoyl = O=C(CCc1ccccc1)*; NHBn = c1ccc(CN*)cc1

Key:
[1] = target: T1, Signal transducer and activator of transcription 3 (Homo sapiens, UniProt P40763); experiment: Inhibition of STAT3 in human MDA-MB-435 cells at 20 uM after 48 hrs by luciferase reporter gene assay relative to untreated control; assay type: cell-based
T1 sequence (P40763 whole entry): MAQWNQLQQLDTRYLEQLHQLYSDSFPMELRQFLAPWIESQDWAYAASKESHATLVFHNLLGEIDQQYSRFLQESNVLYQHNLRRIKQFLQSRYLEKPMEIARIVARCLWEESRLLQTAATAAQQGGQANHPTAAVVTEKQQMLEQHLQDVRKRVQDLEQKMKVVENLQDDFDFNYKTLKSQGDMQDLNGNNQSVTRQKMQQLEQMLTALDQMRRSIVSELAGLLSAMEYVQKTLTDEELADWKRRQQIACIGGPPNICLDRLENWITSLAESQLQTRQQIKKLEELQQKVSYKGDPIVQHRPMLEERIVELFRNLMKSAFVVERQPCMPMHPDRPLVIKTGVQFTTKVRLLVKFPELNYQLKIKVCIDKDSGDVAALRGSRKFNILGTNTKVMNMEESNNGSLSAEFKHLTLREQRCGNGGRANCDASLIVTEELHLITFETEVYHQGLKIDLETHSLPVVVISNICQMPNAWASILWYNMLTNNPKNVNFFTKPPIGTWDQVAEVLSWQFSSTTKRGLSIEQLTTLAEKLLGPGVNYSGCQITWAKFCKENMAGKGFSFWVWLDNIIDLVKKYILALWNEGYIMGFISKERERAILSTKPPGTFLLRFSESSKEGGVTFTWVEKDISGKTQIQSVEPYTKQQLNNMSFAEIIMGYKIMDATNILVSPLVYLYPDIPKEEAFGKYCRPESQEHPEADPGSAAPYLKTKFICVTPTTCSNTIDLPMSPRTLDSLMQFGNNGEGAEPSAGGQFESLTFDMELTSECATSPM

[2] = tested on: MDA-MB-231; experiment: Cytotoxicity against human MDA-MB-231 cells harboring constitutively active STAT3 after 24 to 144 hrs by trypan blue-staining based phase contrast microscopy; assay type: functional, cell-based
[3] = Cytotoxicity against mouse TE71 without constitutively active STAT3 after 24 to 144 hrs by trypan blue-staining based phase contrast microscopy
[4] = tested on: PANC-1; experiment: Cytotoxicity against human PANC1 cells harboring constitutively active STAT3 after 24 to 144 hrs by trypan blue-staining based phase contrast microscopy; assay type: functional, cell-based
[5] = Cytotoxicity against HPDEC without constitutively active STAT3 after 24 to 144 hrs by trypan blue-staining based phase contrast microscopy; conditions: Homo sapiens
[6] = target: T2, Signal transducer and activator of transcription 3 (Mus musculus, UniProt P42227); experiment: Binding affinity to STAT3 SH2 in v-Src transformed mouse NIH/3T3 cells overexpressing human EGFR; assay type: cell-based, NIH3T3
T2 sequence (P42227 whole entry): as the sequence (P40763 whole entry) above, with E760D counted along it

[7] = tested on: NIH3T3; experiment: Cytotoxicity against mouse NIH/3T3 cells without constitutively active STAT3 after 24 to 144 hrs by trypan blue-staining based phase contrast microscopy; assay type: cell-based
[8] = target: T3, Signal transducer and activator of transcription 1-alpha/beta (Homo sapiens, UniProt P42224); experiment: Inhibition of STAT1 SH2 domain by fluorescence polarization assay
T3 sequence (P42224 whole entry): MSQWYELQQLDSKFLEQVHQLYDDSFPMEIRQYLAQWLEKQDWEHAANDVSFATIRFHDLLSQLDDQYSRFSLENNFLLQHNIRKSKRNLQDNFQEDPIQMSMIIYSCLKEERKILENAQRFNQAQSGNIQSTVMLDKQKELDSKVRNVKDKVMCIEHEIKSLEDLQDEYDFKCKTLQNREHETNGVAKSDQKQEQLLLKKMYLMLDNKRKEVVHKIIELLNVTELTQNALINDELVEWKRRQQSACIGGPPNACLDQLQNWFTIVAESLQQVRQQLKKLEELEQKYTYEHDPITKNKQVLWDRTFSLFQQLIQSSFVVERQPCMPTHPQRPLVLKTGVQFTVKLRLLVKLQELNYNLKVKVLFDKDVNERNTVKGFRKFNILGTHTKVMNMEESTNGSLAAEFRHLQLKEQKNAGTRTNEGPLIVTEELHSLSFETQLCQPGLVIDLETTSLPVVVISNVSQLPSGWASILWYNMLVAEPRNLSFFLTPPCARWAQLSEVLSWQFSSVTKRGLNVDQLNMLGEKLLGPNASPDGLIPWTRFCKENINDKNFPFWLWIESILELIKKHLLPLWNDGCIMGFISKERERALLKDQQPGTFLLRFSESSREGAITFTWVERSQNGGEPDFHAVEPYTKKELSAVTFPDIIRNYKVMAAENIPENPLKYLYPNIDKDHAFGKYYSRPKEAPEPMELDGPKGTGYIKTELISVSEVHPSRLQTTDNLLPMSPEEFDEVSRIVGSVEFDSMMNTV

[9] = target: Tyrosine-protein kinase JAK2 (Homo sapiens) (UniProt O60674); conditions: at 5 µM
Chain of Tyrosine-protein kinase JAK2 (Homo sapiens) (O60674 whole entry): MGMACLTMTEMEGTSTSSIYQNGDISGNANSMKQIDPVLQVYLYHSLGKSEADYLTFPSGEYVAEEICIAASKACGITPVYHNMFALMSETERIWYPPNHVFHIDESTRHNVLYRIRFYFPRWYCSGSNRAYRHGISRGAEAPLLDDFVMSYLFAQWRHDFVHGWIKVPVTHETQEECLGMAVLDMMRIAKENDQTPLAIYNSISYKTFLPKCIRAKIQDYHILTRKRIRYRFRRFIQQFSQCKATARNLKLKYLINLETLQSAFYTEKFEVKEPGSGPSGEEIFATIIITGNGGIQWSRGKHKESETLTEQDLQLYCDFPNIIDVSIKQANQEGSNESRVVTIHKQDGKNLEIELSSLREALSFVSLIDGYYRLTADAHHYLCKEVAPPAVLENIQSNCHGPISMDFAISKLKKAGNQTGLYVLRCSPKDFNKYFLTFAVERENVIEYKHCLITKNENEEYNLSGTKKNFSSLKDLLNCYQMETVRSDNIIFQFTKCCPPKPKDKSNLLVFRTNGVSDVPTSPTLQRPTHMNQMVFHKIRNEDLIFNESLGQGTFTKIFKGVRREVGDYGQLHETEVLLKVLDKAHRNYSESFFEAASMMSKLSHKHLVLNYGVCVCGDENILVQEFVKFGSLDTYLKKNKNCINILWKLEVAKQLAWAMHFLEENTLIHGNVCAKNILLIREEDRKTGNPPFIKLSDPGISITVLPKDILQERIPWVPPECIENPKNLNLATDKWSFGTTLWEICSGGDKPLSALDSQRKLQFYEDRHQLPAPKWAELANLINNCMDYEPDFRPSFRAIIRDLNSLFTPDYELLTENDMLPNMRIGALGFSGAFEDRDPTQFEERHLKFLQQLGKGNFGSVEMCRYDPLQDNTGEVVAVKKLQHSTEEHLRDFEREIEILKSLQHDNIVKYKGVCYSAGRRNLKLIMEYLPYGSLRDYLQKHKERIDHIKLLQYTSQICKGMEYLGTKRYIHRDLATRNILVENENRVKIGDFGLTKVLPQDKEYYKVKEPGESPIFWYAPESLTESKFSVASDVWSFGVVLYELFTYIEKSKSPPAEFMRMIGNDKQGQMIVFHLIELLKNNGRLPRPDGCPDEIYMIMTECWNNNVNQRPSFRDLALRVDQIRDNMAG
Description: Inhibition of JAK2 at 5 uM by high throughput assay

[10] = Binding affinity to full length STAT3alpha by fluorescence polarization assay
[11] = target: T2, Signal transducer and activator of transcription 3; experiment: Inhibition of STAT3 dimerization in v-Src transformed mouse NIH/3T3 cells overexpressing human EGFR assessed as suppression of STAT3-DNA interaction in nucleus after 30 mins by EMSA; assay type: cell-based, NIH3T3
[12] = target: T1, Signal transducer and activator of transcription 3; experiment: Inhibition of STAT3 expressed in human U3A cells after 1 hr by luciferase reporter gene assay; assay type: cell-based
[13] = target: T1, Signal transducer and activator of transcription 3; experiment: Inhibition of STAT3 SH2 domain assessed as inhibition of STAT3 SH2-phosphotyrosine interaction after 15 mins by fluorescence polarization assay
[14] = target: T1, Signal transducer and activator of transcription 3; experiment: Inhibition of recombinant STAT3 assessed as inhibition of STAT3-phosphododecapeptide interaction by SPR analysis
[15] = target: T1, Signal transducer and activator of transcription 3; experiment: Inhibition of IL6-mediated STAT3 phosphorylation in human HepG2 cells preincubated for 1 hr prior to IL6 challenge measured after 30 mins by immunoblot analysis; assay type: cell-based
[16] = Cytotoxicity against human SNU182 cells with impaired TGFbeta pathway assessed as growth inhibition at 250 uM after 72 hrs by MTT assay; assay type: functional, cell-based; conditions: SNU-182
[17] = tested on: HepG2; experiment: Cytotoxicity against human HepG2 cells with intact TGFbeta pathway assessed as growth inhibition at 250 uM after 72 hrs by MTT assay; assay type: functional; conditions: HepG2, 72 h, read-out: GI
[18] = tested on: SNU-398; experiment: Cytotoxicity against human SNU398 cells with impaired TGFbeta pathway assessed as growth inhibition at 250 uM after 72 hrs by MTT assay; assay type: functional; conditions: SNU-398, 72 h, read-out: GI
[19] = tested on: Huh-7; experiment: Cytotoxicity against human HuH7 cells with impaired TGFbeta pathway assessed as growth inhibition at 250 uM after 72 hrs by MTT assay; assay type: functional; conditions: Huh-7, 72 h, read-out: GI
[20] = Cytotoxicity against human PLC/PRF/5 cells with intact TGFbeta pathway assessed as growth inhibition at 250 uM after 72 hrs by MTT assay; assay type: functional, cell-based
[21] = tested on: SNU-449; experiment: Cytotoxicity against human SNU449 cells with intact TGFbeta pathway assessed as growth inhibition at 250 uM after 72 hrs by MTT assay; assay type: functional; conditions: SNU-449, 72 h, read-out: GI
[22] = tested on: SNU-475; experiment: Cytotoxicity against human SNU475 cells with impaired TGFbeta pathway assessed as growth inhibition at 250 uM after 72 hrs by MTT assay; assay type: functional; conditions: SNU-475, 72 h, read-out: GI
[23] = target: T1, Signal transducer and activator of transcription 3; experiment: Inhibition of STAT3 SH2 domain assessed as inhibition of STAT3 SH2-phosphotyrosine interaction by AlphaScreen assay
[24] = target: T3, Signal transducer and activator of transcription 1-alpha/beta; experiment: Inhibition of STAT1 SH2 domain assessed as inhibition of STAT1 SH2-phosphotyrosine interaction by AlphaScreen assay
[25] = target: T1, Signal transducer and activator of transcription 3; experiment: Inhibition of STAT3 SH2 domain using 5-carboxyfluorescein-GY(PO3H2)LPQTV-NH2 as substrate preincubated for 60 mins prior to substrate addition by fluorescence polarization assay

Structure (SMILES): Cc1ccc(S(=O)(=O)N(C)CC(=O)N(Cc2ccc(C3CCCCC3)cc2)c2ccc(C(=O)O)c(O)c2)cc1
IC50 [2]: 37 µM
IC50 [3]: > 200 µM
IC50 [4]: 48 µM
IC50 [5]: > 200 µM
Kd [6]: 2.74 µM
IC50 [7]: > 200 µM
Ki [8]: ≥ 50 µM

Structure (SMILES): COc1ccc(/C=C/C(=O)C(C)(C)C(=O)/C=C/c2ccc(OC)c(OC)c2)cc1OC
inhibition [9]: 60%

Structure (SMILES): CC(C)C[C@H](NC(=O)[C@H](Cc1ccc(OP(=O)(O)O)cc1)NC(=O)CCc1ccccc1)C(=O)N1C[C@@H]2C[C@@H]2[C@H]1C(=O)N[C@@H](CCC(N)=O)C(=O)NCc1ccccc1 (Hydrocinnamoyl-[pY]L[Pro(3S,4R-methano)]Q-NHBn)
Ki [10]: 0.125 µM

Structure (SMILES): O=C(Nc1ccc(C2CCCCC2)cc1)c1nc(-c2ccccc2)oc1Cc1ccc(OP(=O)(O)O)cc1
IC50 [11]: 33 µM

Structure (SMILES): O=C(O)c1ccc(/C=C/C(=O)c2ccc3c(c2)OCCO3)cc1
IC50 [14]: 447 µM
IC50 [15]: 91 µM

Structure (SMILES): Cc1ccc(S(=O)(=O)OCC(=O)Nc2ccc(C(=O)O)c(O)c2)cc1
growth inhibition (GI) [16]: 80%
inhibition of growth at 250 µM [17]: 20%
inhibition of growth at 250 µM [18]: 80%
inhibition of growth at 250 µM [19]: 80%
growth inhibition (GI) [20]: 20%
inhibition of growth at 250 µM [21]: 20%
inhibition of growth at 250 µM [22]: 80%

Structure (SMILES): O=[N+]([O-])c1ccc2c(c1)S(=O)(=O)C=C2
IC50 [25]: 5.1 µM

Structure (SMILES): CCCCCCNC(=O)c1nc(-c2cccc3ccccc23)oc1Cc1ccc(OP(=O)(O)O)cc1
IC50 [11]: 58 µM

Structure (SMILES): COc1cccc(NC(=O)c2nc(-c3ccccc3)sc2Cc2ccc(OP(=O)(O)O)cc2)c1
IC50 [11]: 28 µM

Results, then the compound that gave them:

fold change (FC) [1]: 5
Structure (SMILES): C[C@@H]1CC(=O)c2c(ccc3c2C(=O)c2cccc(O)c2C3=O)C1

EC50 [12]: 3 µM
Structure (SMILES): O=C(N/N=C/c1ccc([N+](=O)[O-])o1)c1ccc(O)cc1 [NIFUROXAZIDE]

Ki [13]: 18.7 µM
Structure (SMILES): Cc1ccc(S(=O)(=O)N(C)CC(=O)N(Cc2ccc(C3CCN(c4ccc(C#N)cc4)CC3)cc2)c2ccc(C(=O)O)c(O)c2)cc1

IC50 [23]: 0.28 µM
IC50 [24]: 10 µM
Structure (SMILES): C1=Cc2nc1cc1ccc([nH]1)c(-c1ccccc1)c1nc(cc3ccc([nH]3)c2-c2ccccc2)C=C1

Ki [13]: 50 µM
Structure (SMILES): Cc1ccc(S(=O)(=O)OCC(=O)N(Cc2ccc(C3CCCCC3)cc2)c2ccc(C(=O)O)c(O)c2)cc1

IC50 [11]: 25 µM
Structure (SMILES): CCCCCCNC(=O)c1nc(-c2cccc3ccccc23)sc1Cc1ccc(OP(=O)(O)O)cc1

IC50 [11]: 90 µM
Structure (SMILES): COc1cccc(NC(=O)c2nc(-c3ccccc3)oc2Cc2ccc(OP(=O)(O)O)cc2)c1
